Data taken from patent US5563292A, “Lipoxygenase inhibitors” (Schering Corporation, priority 1990, dated 1996).
Read-outs that look alike come from different tables or passages of the source.

Key:
5-Lipoxygenase (5-LO) = biological target: T1, 5-Lipoxygenase (5-LO) (Homo sapiens, UniProt P09917); assay: 5-Lipoxygenase Assay with Human Neutrophils (A23187-stimulated 5-HETE and LTB4 production); type: cell-based; conditions: [14C] arachidonic acid 9 μM, A23187 1 μM
T1 construct: Human polymorphonuclear leukocytes (neutrophils) were obtained from normal healthy volunteers by venipuncture; endogenous in cells; host or cells: human peripheral blood neutrophils (polymorphonuclear leukocytes) from healthy volunteers, intact cells
T1 sequence (P09917 1-674): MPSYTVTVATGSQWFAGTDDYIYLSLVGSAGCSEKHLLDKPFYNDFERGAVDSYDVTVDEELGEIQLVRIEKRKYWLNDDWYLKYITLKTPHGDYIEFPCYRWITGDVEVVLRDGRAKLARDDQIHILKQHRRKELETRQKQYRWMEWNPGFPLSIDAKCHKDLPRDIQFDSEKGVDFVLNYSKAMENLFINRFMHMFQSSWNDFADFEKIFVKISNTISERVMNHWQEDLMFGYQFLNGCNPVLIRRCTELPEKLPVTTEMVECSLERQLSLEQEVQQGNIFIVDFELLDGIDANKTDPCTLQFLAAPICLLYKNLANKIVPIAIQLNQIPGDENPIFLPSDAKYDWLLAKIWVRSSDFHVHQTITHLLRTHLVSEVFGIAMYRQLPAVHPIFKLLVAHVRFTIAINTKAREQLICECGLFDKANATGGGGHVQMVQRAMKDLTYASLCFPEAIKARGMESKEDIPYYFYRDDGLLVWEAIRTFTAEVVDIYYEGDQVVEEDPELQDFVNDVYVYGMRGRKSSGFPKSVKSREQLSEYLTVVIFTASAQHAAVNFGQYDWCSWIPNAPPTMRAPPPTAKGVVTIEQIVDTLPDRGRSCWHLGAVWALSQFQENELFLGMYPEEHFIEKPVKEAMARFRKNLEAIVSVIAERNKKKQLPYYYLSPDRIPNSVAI
Procedure: 5-Lipoxygenase Assay with Human Neutrophils
Human polymorphonuclear leukocytes (neutrophils) were obtained from normal healthy volunteers by venipuncture and collected with heparin anticoagulant. Neutrophils were isolated by Dextran/Ficol sedimentation as described (Billah et al., J. Biol. Chem. 260, 6899-6906 (1985)). In brief, 30 ml of blood was mixed with 5 ml of dextran (Sigma) solution and kept at 37 C for 30 min. The upper white cell-rich layer was removed and 10 ml was layered on 9 ml of Ficol-Pague solution (Pharmacia) and centrifuged at 280×g for 10 min. at 5° C. The supernatant was removed and the neutrophil pellet was resuspended in HEPES buffer containing 25 mM N-2-hydroxyethylpiperazine-N^1 -2-ethanesulfonic acid (HEPES), 125 mM NaCl, 2.5 mM KCl, 0.7 mM MgCl2, […] 10 mM glucose at pH 7.4. The red cells in the suspension were lysed by hypotonic shock. The neutrophils were washed by centrifugation in HEPES buffer two times and finally resuspended at a concentration of 20×10^6 cells/ml in the presence of 1 mM CaCl2.
Neutrophils (0.2 ml of suspension) were preincubated with dimethylsulfonxide (DMSO) vehicle with or without test compound (1 μl) for 4 minutes then incubated for 5 minutes with [^14 C] arachidonic acid (Amersham, 59 Ci/mole) at a 9 μM final concentration, and the calcium ionophore A23187 (Calbiochem) at a 1 μM final concentration. These stimulants were added in 10 μl of water:ethanol (9:1). The reaction was stopped by addition of methanol (0.4 ml), and cellular debris was removed by centrifugation. Aliquots (100 ul) of the incubations were run on a Waters two pump HPLC system fitted with a DuPont Zorbax ODS, 5μ, […] Reliance Cartridge column and C18 "Guard Pak". The column was initially eluted at 2 ml/min with 80% of the mixture water:methanol:acetic acid (46:54:0.08) containing 1 mM EDTA adjusted to pH 6.0 with ammonium hydroxide (Pump A) and 20% methanol (Pump B). At 10 minutes, a linear gradient to reach 100% methanol (Pump B) at 27 minutes was established. Between 27 and 28 minutes, methanol was exchanged for the initial eluting solvent and by 35 minutes the column had been reequilibrated for the next sample. The effluent was analyzed by a continuous flow radioactivity monitor (model ROMONA-D) interfaced with a Hewlett Packard Lab Automation System for quantitation of radioactive products. These were predominantly leukotriene B4 (LTB4) which eluted at 7 minutes, and 5-hydroxyeicosatetraenoic acid (5-HETE) which eluted at 20 minutes.

mouse ear = assay: Arachidonic Acid Mouse Ear Test; type: in vivo; conditions: topical, 30 minutes prior to arachidonic acid, biopsy 1 hour after challenge
Procedure: Charles River, female, CD, (SD) BR mice, 6 weeks old, are caged 8/group and allowed to acclimate 1-3 weeks prior to use.
Arachidonic acid (AA) is dissolved in reagent grade acetone (2 mg/0.01 ml) and stored at -20° C. for a maximum of 1 week prior to use. Inflammatory reactions are induced by applying 10 μl of AA to both surfaces of one ear ([…] total).
Test drugs are dissolved in either reagent grade acetone or aqueous ethanol (only if insoluble in acetone) at the same doses selected by Opas et al., Fed. Proc. 43, Abstract 2983, p. 1927 (1984) and Young et al., J. Invest. Dermatol. 82, pp. 367-371 (1984). These doses are employed to ensure maximum responses and to overcome any difference in topical absorption which could occur with any drug applied in an aqueous ethanol vehicle. The test drug is applied 30 minutes prior to challenge with AA.
The severity of the inflammation is measured as a function of increased ear weight. A 6 mm punch biopsy is removed 1 hour after AA challenge and weighed to the nearest 0.1 mg. Mean±standard error and all possible comparisons are made via Duncan's Multiple Range Statistic.

[1] = read-out: 5-LO inhibition, % inhibition 5-HETE
[2] = read-out: 5-LO inhibition, % inhibition LTB4

SMILES | inhibition at 15 µM (5-Lipoxygenase (5-LO); [1]) [%] | inhibition at 15 µM (5-Lipoxygenase (5-LO); [2]) [%] | inhibition at 5 µM (5-Lipoxygenase (5-LO); dose 5 μM) [%] | Mouse ear assay, % inhibition (ear weight) (mouse ear; dose 0.5 mg/ear) [%] | Mouse ear assay, % inhibition (ear weight) (mouse ear; dose 1.0 mg/ear) [%]
COc1cc(OC)cc(C(C)(C)CC(C)(CCCC=O)c2cc(OC)cc(OC)c2)c1 (stereo not drawn) [Formula 43] | 97 | 97 | – | – | –
COC(=O)CCCC(C)(CC(C)(C)c1cc(OC)cc(OC)c1)c1cc(OC)cc(OC)c1 (stereo not drawn) [Formula 44] | 98 | 100 | – | – | –
COc1cc(OC)cc(C(C)(C)CC(C)(CCCC(=O)NO)c2cc(OC)cc(OC)c2)c1 (stereo not drawn) [Formula 46] | 99 | 96 | 63 | – | –
COc1cc(OC)cc(C(C)(C)CC(C)(CCCCOC(C)=O)c2cc(OC)cc(OC)c2)c1 (stereo not drawn) [Formula 42] | 95 | 100 | – | 40 | –
COc1cc(OC)cc(C(C)(C)CC(C)(CCCC(=O)O)c2cc(OC)cc(OC)c2)c1 (stereo not drawn) [Formula 45] | 33 | 14 | – | – | –
COc1cc(OC)cc(C(C)(C)CC(C)(CCCCO)c2cc(OC)cc(OC)c2)c1 (stereo not drawn) [Formula 41, 5,7-dimethyl-5,7-bis(3,5-dimethoxyphenyl)-1-octanol] | 99 | 97 | – | – | 72
